Measurements taken from patent EP0168112A2, “Alpha-L-aspartyl-D-phenylglycine esters and amides useful as high intensity sweeteners” (THE PROCTER & GAMBLE COMPANY, priority 1984, dated 1986).
Square brackets hold non-standard residues; d marks the D form. Peptide text beside a SMILES is read from it. Phg = N[C@H](C(=O)O)c1ccccc1

Assay: Solubility for the sweetness intensity measurement
Format: physicochemical
Details: sweetness intensity test sample

Compound | solubility
CC1CCCC(C)C1NC(=O)[C@H](NC(=O)[C@@H](N)CC(=O)O)c1ccccc1 (stereo partly drawn) [Example 10, 2,6-Dimethylcyclohexyl amide] | too Insoluble for an accurate sweetness intensity measurement

Assay: not given
Details: prior art value; cited from earlier work

Compound | sweetness intensity
C[C@@H](NC(=O)[C@@H](N)CC(=O)O)C(=O)NC1C(C)(C)S(=O)(=O)C1(C)C | 1000 times that of sucrose
C[C@@H](NC(=O)[C@@H](N)CC(=O)O)C(=O)NC1C(C)(C)SC1(C)C [2,2,4,4-tetramethylthietan-3-yl] | 2000 times that of sucrose
CC1CCC(C)C1NC(=O)[C@@H](C)NC(=O)[C@@H](N)CC(=O)O (stereo partly drawn) [2,5 dimethylcyclopentyl] | 520 times that of sucrose
CC1CCCC(C)C1NC(=O)[C@@H](C)NC(=O)[C@@H](N)CC(=O)O (stereo partly drawn) [2,6-dimethylcyclohexyl] | 600 times that of sucrose
CCOC(=O)C(NC(=O)[C@@H](N)CC(=O)O)C(=O)OC1C2(C)CCC(C2)C1(C)C (stereo partly drawn) [R' is fenchyl and R is ethyl] | 4200-5400 times that of sucrose
COC(=O)C(NC(=O)[C@@H](N)CC(=O)O)C(=O)OC1C2(C)CCC(C2)C1(C)C (stereo partly drawn) [R' is fenchyl and R is methyl] | 22,200-33,200 times that of sucrose
O=C1NS(=O)(=O)c2ccccc21 [Saccharin, saccharin] | about 300 times that of sucrose
COC(=O)[C@H](Cc1ccccc1)NC(=O)[C@@H](N)CC(=O)O [aspartame, alpha-L-aspartyl-L-phenylalanine methyl ester] (H-Asp-Phe-OMe) | 150-200 times that of sucrose
C[C@@H](NC(=O)[C@@H](N)CC(=O)O)C(=O)NC(C1CC1)C1CC1 [dicyclopropylcarbinyl] | 1200 times that of sucrose
COC(=O)[C@@H](NC(=O)[C@@H](N)CC(=O)O)c1ccccc1 [methyl ester of L-aspartyl-L-phenylglycine] (H-Asp-[Phg]-OMe) | 100-1000 times that of sucrose

Same assay, conditions: taste description from prior art; cited from earlier work

Compound | taste
COC(=O)[C@@H](Cc1ccccc1)NC(=O)[C@@H](N)CC(=O)O [methyl ester of L-aspartyl-D-phenylalanine] (H-Asp-[dF]-OMe) | bitter
COC(=O)[C@@H](NC(=O)[C@@H](N)CC(=O)O)c1ccccc1 [methyl ester of L-aspartyl-L-phenylglycine] (H-Asp-[Phg]-OMe) | quite sweet

Assay: not given
Details: in most carbonated beverages; background statement; cited from earlier work

Compound | hydrolytic stability
COC(=O)[C@H](Cc1ccccc1)NC(=O)[C@@H](N)CC(=O)O [aspartame, alpha-L-aspartyl-L-phenylalanine methyl ester] (H-Asp-Phe-OMe) | hydrolytically unstable

Assay: Sweetness intensity relative to sucrose, taste panel comparison with five sucrose standard samples
Format: in vivo, Male subjects
Details: relative to sucrose (w/v); test sample about 22°C, prepared at a concentration equal to about 8-10% sucrose
Method: The subjects were asked to taste and expectorate about 10 ml of a test sample (temperature of about 22°C) having dissolved therein the ester or amide. The subjects were then asked to compare the sweetness of the test sample with five standard samples which contained increasing amounts of sucrose. The standard samples were letter coded A, B, C, D and E and were designated on a ballot by a closed linear scale. Sweetness intensity of the test sample was recorded by the subject making a mark on the linear scale at a point they considered equal in sweetness among the standard samples; interpolation between standards was encouraged. After completion of the panel, a five point numeric scale was superimposed on the linear scales to obtain numerical data; data were averaged and recorded to the nearest 0.25 unit. Equivalent sucrose sweetness was determined by referring to graphs of (wlv) sucrose concentration in the standard samples versus a linear numeric scale.
Sweetness intensity was calculated by dividing the concentration (w/v) of perceived sweeteness by the concentration (wlv) of the ester or amide required to produce that sweetness. […] The test sample was prepared at a concentration which would be equal to about 8-10% sucrose.

Compound | sweetness intensity [X]
CC1(C)[C@@H]2CC[C@@](C)(C2)[C@@H]1OC(=O)[C@H](NC(=O)[C@@H](N)CC(=O)O)c1ccccc1 [Example 1, alpha-L-Aspartyl-D-phenylglycine-(-)-alpha-fenchyl ester] | 1750
CC(OC(=O)[C@H](NC(=O)[C@@H](N)CC(=O)O)c1ccccc1)C(C)(C)C (stereo partly drawn) [Example 2, 3,3-Dimethyl-2-butyl ester] | 30
CC1CCC(C)C1OC(=O)[C@H](NC(=O)[C@@H](N)CC(=O)O)c1ccccc1 (stereo partly drawn) [Example 4, 2,5-Dimethylcyclopentyl ester] | 370
N[C@@H](CC(=O)O)C(=O)N[C@@H](C(=O)NC(C1CC1)C1CC1)c1ccccc1 [Example 12, alpha-L-Aspartyl-D-phenylglycinedicyclopropylcarbinyl amide] | 80
(±) endo-Norbornyl ester [Example 5] | 20
(±) exo-Norbornyl ester [Example 6] | 150
alpha-L-Aspartyl-D-phenylglycine-(+)-beta-fenchyl ester [Example 8b] | 5000
alpha-L-Aspartyl-D-phenylglycine-(-)-beta-fenchyl ester [Example 8a] | 600

Assay: Sweetness intensity based on informal panel testing
Format: in vivo
Details: not given

Compound | sweetness intensity
CC1(C)SC(C)(C)C1NC(=O)[C@H](NC(=O)[C@@H](N)CC(=O)O)c1ccccc1 [Example 11, alpha-L-Aspartyl-D-phenylglycine-2,2,4,4-tetramethylthietan-3-yl amide] | 100 X
alpha-L-Aspartyl-D-phenylglycine-alpha-7-oxa-fenchyl ester [Example 14] | approximately 1000 X
